Tested on: cancers cell lines
Assay: Inhibition test on all kinds of cancer cell lines (overall statement)
Type: cell-based
Conditions: several / various cancer cell lines, Table 18, FIG. 1
Description: The cell numbers were counted and reseed as 2×10^6 in cell culture plate/flask. Then, the culture medium were added to a volume of 10 ml, and the cells were cultured for 2-3 days. Then, the cells were suspended for loading into 96-well plates. The number of cells was 3000 and the volume of the culture medium was 100 μl each well.
Removing the original culture medium from 96-well plate. Then add 100 μl of commercially drug at a concentration of 10 μM per well. After 72 hours, add the diluted WST-1 reagent to the well with 100 μl/well, and the diluted WST-1 reagent was acquired from the dilution of 9:1 medium and WST-1 stock reagent. Finally, the total volume of each well was 200 μl/well. Culture the 96-well plate at 37° C. for 30 to 90 minutes. Detecting and calculate the survival rate of each cancer cells with an ELISA reader at OD450 nm.
As a result in the experiments of the present invention.

Fc1ccc([C@@H]2CCNC[C@H]2COc2ccc3c(c2)OCO3)cc1 [Paroxetine]
inhibitory effect on cancer cell lines (in words): significant inhibitory effect
